According to US20070015823A1, “Ambruticin VS compounds” (priority 2004, published 2007):
In brackets after ≈: the same amount, converted by molar mass. Read-outs that look alike come from different tables or passages of the source.

Assays:
C. immitis = experiment: microbe, parasite or virus in culture; type: cell-based, Coccidioides immitis; details: for MIC: Coccidioides immitis
C. posadasii = experiment: microbe, parasite or virus in culture; type: cell-based, Coccidioides posadasii; details: for MIC: Coccidioides posadasii
Epidermophyton floccosum = experiment: Dermatophyte broth microdilution, NCCLS M38-A; type: cell-based
Trichophyton rubrum = experiment: Dermatophyte broth microdilution, NCCLS M38-A; type: cell-based
[1] = system: Trichophyton mentagrophytes; experiment: Dermatophyte broth microdilution, NCCLS M38-A; type: cell-based
Microsporum gypseum = experiment: Dermatophyte broth microdilution, NCCLS M38-A; type: cell-based
Cryptococcus neoformans = experiment: Broth microdilution antifungal susceptibility, NCCLS M38-A; details: 50% growth inhibition, range = minimum and maximum of multiple assays; for MIC C. neoformans 97-14: strain 97-14; for MIC C. neoformans 11239: strain 11239; for MIC C. neoformans 11240: strain 11240
A. flavus ATCC 204304 = experiment: as above; type: cell-based, Aspergillus flavus; details: minimal concentration inhibiting >95% growth; average of at least two assays (except I-l and I-x)
[2] = system: Trichophyton interdigitale; experiment: Dermatophyte broth microdilution, NCCLS M38-A; type: cell-based
A. fumigatus ATCC 204305 = experiment: Broth microdilution antifungal susceptibility, NCCLS M38-A; type: cell-based, Aspergillus fumigatus; details: minimal concentration inhibiting >95% growth; average of at least two assays (except I-l and I-x)
Microsporum canis = experiment: Dermatophyte broth microdilution, NCCLS M38-A; type: cell-based
Histoplasma capsulatum = type: cell-based
Blastomyces dermatitidis = experiment: Broth microdilution antifungal susceptibility, NCCLS M38-A; type: cell-based

| SMILES | MIC0 Ef (Epidermophyton floccosum) [µg/mL] | MIC0 Tr (Trichophyton rubrum) [µg/mL] | MIC0 Tm [1] [µg/mL] | MIC0 Mg (Microsporum gypseum) [µg/mL] | MIC C. neoformans 97-14 (Cryptococcus neoformans) [µg/mL] | MIC C. neoformans 11239 (Cryptococcus neoformans) [µg/mL] | MIC C. neoformans 11240 (Cryptococcus neoformans) [µg/mL] | MIC0 A. flavus ATCC 204304 (A. flavus ATCC 204304) [µg/mL] | MIC0 Ti [2] [µg/mL] | MIC0 A. fumigatus ATCC 204305 (A. fumigatus ATCC 204305) [µg/mL] | MIC0 Mc (Microsporum canis) [µg/mL] | MIC H. capsulatum G217B (Histoplasma capsulatum) [µg/mL] | MIC H. capsulatum GS20 (Histoplasma capsulatum) [µg/mL] | MIC B. dermatitidis Gu (Blastomyces dermatitidis) [µg/mL] | MIC B. dermatitidis Kr (Blastomyces dermatitidis) [µg/mL] | MIC B. dermatitidis V (Blastomyces dermatitidis) [µg/mL] | also measured |
| --- | --- | --- | --- | --- | --- | --- | --- | --- | --- | --- | --- | --- | --- | --- | --- | --- | --- |
| OC(Cn1cncn1)(Cn1cncn1)c1ccc(F)cc1F [Fluconazole] | – | – | – | – | – | – | – | – | – | – | – | – | – | – | – | – | MIC (C. immitis; read-out: MIC C. immitis RMS 2281): 16 µg/mL (≈ 52.2 µM); MIC (C. immitis; read-out: MIC C. immitis RS): 16 µg/mL (≈ 52.2 µM); MIC (C. immitis; read-out: MIC C. immitis S46): 16 µg/mL (≈ 52.2 µM); MIC (C. posadasii; read-out: MIC C. posadasii C735): 16 µg/mL (≈ 52.2 µM); MIC (C. posadasii; read-out: MIC C. posadasii RMSCC 2127): 16 µg/mL (≈ 52.2 µM); MIC (C. posadasii; read-out: MIC C. posadasii Silveria): 4 µg/mL (≈ 13.1 µM) |
| CCOC(=O)O[C@H]1[C@H](/C=C/[C@H]2[C@H](C)[C@@H]2/C=C/[C@@H](C)/C=C(\C)[C@H]2CC=C(C)[C@@H](CC)O2)O[C@H](CC(N)=O)C[C@@H]1N(C)C [I-ii, (5S,6R)-5-(dimethylamino)-6-ethoxycarbonyloxy-polyangiamide] | 1 | 1.58 | 1.41 | 1 | 0.5 to 1 | 0.25 (≈ 0.436 µM) | 0.25 to 0.5 | 1 | 1.58 | 1 | 0.5 | – | – | – | – | – | MIC C. immitis RMS 2281 (C. immitis): 0.125 µg/mL (≈ 0.218 µM); MIC C. immitis RS (C. immitis): 0.25 µg/mL (≈ 0.436 µM); MIC C. immitis S46 (C. immitis): 0.25 µg/mL (≈ 0.436 µM); MIC C. posadasii C735 (C. posadasii): 0.5 µg/mL (≈ 0.873 µM); MIC C. posadasii RMSCC 2127 (C. posadasii): 0.25 µg/mL (≈ 0.436 µM); MIC C. posadasii Silveria (C. posadasii): 0.5 µg/mL (≈ 0.873 µM) |
| CC[C@H]1O[C@@H](/C(C)=C/[C@H](C)/C=C/[C@H]2[C@@H](C)[C@@H]2/C=C/[C@@H]2O[C@H](CC(=O)O)C[C@H](N(C)C)[C@H]2O)CCC1C (some centres unmarked) [IV-b, 20,21-dihydro ambruticin VS-3] | 1.41 | 2.51 | 4 | 1.25 | – | – | – | 0.44 | 2.51 | 0.88 | 1.41 | – | – | – | – | – | – |
| CC[C@H]1O[C@@H](/C(C)=C/[C@H](C)/C=C/[C@H]2[C@@H](C)[C@@H]2/C=C/[C@@H]2O[C@H](CC(=O)O)C[C@H](NC3CCCC3)[C@H]2O)CC=C1C [I-d, (5S,6R)-5-(cyclopentylamino)-6-hydroxypolyangioic acid] | 4 | 3.17 | 8 | 2.51 | – | – | – | 8.0 | 2.51 | 8.0 | 2.82 | <0.19 | <0.19 | >12.5 | >12.5 | >12.5 | – |
| CC[C@H]1O[C@@H](/C(C)=C/[C@H](C)/C=C/[C@H]2[C@@H](C)[C@@H]2/C=C/[C@@H]2O[C@H](CC(=O)O)C[C@H](N(C)CC)[C@H]2O)CC=C1C [I-a, (5S,6R)-5-(N-ethyl-methylamino)-6-hydroxypolyangioic acid] | 4 | 2 | 5.65 | 2.51 | 1 (≈ 1.94 µM) | 2 (≈ 3.88 µM) | 2 (≈ 3.88 µM) | 2.0 | 2 | 2.0 | 1.41 | – | – | – | – | – | – |
| CC[C@H]1O[C@@H](/C(C)=C/[C@H](C)/C=C/[C@H]2[C@@H](C)[C@@H]2/C=C/[C@@H]2O[C@H](CC(=O)O)C[C@H](NC3CCC3)[C@H]2O)CC=C1C [I-jj, (5S,6R)-5-(cyclobutylamino)-6-hydroxypolyangioic acid] | 5.65 | 3.17 | >8 | 1.25 | 0.125 (≈ 0.237 µM) | 2 (≈ 3.79 µM) | 2 (≈ 3.79 µM) | 5.33 | 2.51 | 6.67 | 8 | – | – | – | – | – | – |
| CCN[C@H]1C[C@@H](CC(=O)O)O[C@@H](/C=C/[C@H]2[C@H](C)[C@@H]2/C=C/[C@@H](C)/C=C(\C)[C@H]2CC=C(C)[C@@H](CC)O2)[C@@H]1O [I-mm, (5S,6R)-5-(ethylamino)-6-hydroxypolyangioic acid] | 1.41 | 1.25 | 2.82 | 0.79 | 0.125 (≈ 0.249 µM) | 0.25 (≈ 0.498 µM) | 0.0625 (≈ 0.125 µM) | 0.93 | 0.79 | 1.28 | 0.7 | <0.19 | <0.19 | >12.5 | >12.5 | >12.5 | – |
| CCCCN(C)[C@H]1C[C@@H](CC(=O)O)O[C@@H](/C=C/[C@H]2[C@H](C)[C@@H]2/C=C/[C@@H](C)/C=C(\C)[C@H]2CC=C(C)[C@@H](CC)O2)[C@@H]1O [I-u, (5S,6R)-5-(N-butyl-methylamino)-6-hydroxypolyangioic acid] | 2.82 | 3.17 | 11.31 | 4 | 1 (≈ 1.84 µM) | 2 (≈ 3.68 µM) | 2 (≈ 3.68 µM) | 4.5 | 3.17 | 4.25 | 5.65 | <0.19 | <0.19 | >12.5 | >12.5 | >12.5 | – |
| CCCN(C)[C@H]1C[C@@H](CC(=O)O)O[C@@H](/C=C/[C@H]2[C@H](C)[C@@H]2/C=C/[C@@H](C)/C=C(\C)[C@H]2CC=C(C)[C@@H](CC)O2)[C@@H]1O [I-t, (5S,6R)-5-(N-propyl-methylamino)-6-hydroxypolyangioic acid] | 1.41 | 1.58 | 11.31 | 2 | 0.5 (≈ 0.944 µM) | 1 (≈ 1.89 µM) | 0.5 (≈ 0.944 µM) | 2.25 | 1.25 | 2.25 | 2.82 | <0.19 | <0.19 | >12.5 | >12.5 | >12.5 | – |
| C=CCNC(=O)N(C)[C@H]1C[C@@H](CC(=O)O)O[C@@H](/C=C/[C@H]2[C@H](C)[C@@H]2/C=C/[C@@H](C)/C=C(\C)[C@H]2CC=C(C)[C@@H](CC)O2)[C@@H]1O [I-q, (5S,6R)-5-(3-allyl-1-methylureido)-6-hydroxypolyangioic acid] | >8 | >8 | >8 | >8 | – | – | – | 32 | 12.69 | 16 | >8 | – | – | – | – | – | – |
